# Test results from patent publication US10111866B2, “Compounds as rearranged during transfection (RET) inhibitors” (GLAXOSMITHKLINE INTELLECTUAL PROPERTY DEVELOPMENT LIMITED, priority 2015, dated 2018).
# pIC50: −log10 of the molar value.
# Key:
# Human RET kinase = Human RET kinase (Homo sapiens (Human), UniProt P07949); assay: RET kinase enzymatic assay; assay type: biochemical; details: GST-RET cytoplasmic domain, HTRF readout
# Procedure: RET Kinase Enzymatic Assay
# Human RET kinase cytoplasmic domain (amino acids 658-1114 of accession number NP_000314.1) was expressed as an N-terminal GST-fusion protein using a baculovirus expression system. GST-RET was purified using glutathione sepharose chromatography. The RET kinase enzymatic assay was performed in a total volume of 10 uL with increasing concentrations of RET kinase inhibitor as a singlet in a 384 well format as follows: RET inhibitor compound plates are prepared by adding 100 nL of RET inhibitor at different concentrations to a 384-well plate. 5 μL/well of a 2× enzyme mix (50 mM HEPES (4-(2-hydroxyethyl)-1-piperazineethanesulfonic acid); 1 mM CHAPS (3-[(3-cholamidopropyl)dimethylammonio]-1-propane sulfonate); 0.1 mg/mL BSA (bovine serum albumin); 1 mM DTT (dithiothreitol); 0.2 nM RET kinase) was added to the 384-well plate and incubated for 30 minutes at 23° C. […] 10 μL/well of 2× stop/detection mix (50 mM HEPES; 0.1% BSA; 800 mM Potassium Fluoride; 50 mM EDTA (Ethylenediaminetetraacetic acid); 200× dilution of Europium Cryptate labeled anti-phosphotyrosine antibody; 62.5 nM Streptavidin-XL665) incubated for 1 hour at 23° C. and read on a Homogenous Time-Resolved Fluorescence reader. […]
# TT cells = assay: RET kinase cell-based proliferation assay (TT cells, CellTiter-Glo); details: Homo sapiens, 192 h, eight days
# Procedure: RET Kinase Cell-Based Proliferation Assay
# The potency of the compounds of the invention were tested for its ability to inhibit cell proliferation and cell viability. TT cells (ATCC CRL-1803), a medullary thyroid cancer cell line with constitutively activated RET kinase, were maintained in 150 cm^2 dishes in F12 Kaighn's medium, 10% fetal bovine serum, 1× Glutamax, 1× non-essential amino acids, 1× Pen/Strep antibiotics at 37° C. in 5% carbon dioxide. 6.0E3 TT cells/well in 50 μL of media were added to a 96-well cell culture plate and allowed to adhere overnight. 50 μL of serially diluted RET inhibitor compounds were added to 96-well plate containing cultured TT cells and incubated at 37° C. in 5% carbon dioxide for eight days. 50 μL of CellTiter-Glo (Promega #G-7573) was added, contents mixed for 1 minute on shaker followed by 10 minutes in the dark at 23° C. and the luminescence read by EnVision (PerkinElmer). IC50s were fitted using GraphPad Prism to a sigmoidal dose response.
# Sequence of Human RET kinase (P07949 658-1114): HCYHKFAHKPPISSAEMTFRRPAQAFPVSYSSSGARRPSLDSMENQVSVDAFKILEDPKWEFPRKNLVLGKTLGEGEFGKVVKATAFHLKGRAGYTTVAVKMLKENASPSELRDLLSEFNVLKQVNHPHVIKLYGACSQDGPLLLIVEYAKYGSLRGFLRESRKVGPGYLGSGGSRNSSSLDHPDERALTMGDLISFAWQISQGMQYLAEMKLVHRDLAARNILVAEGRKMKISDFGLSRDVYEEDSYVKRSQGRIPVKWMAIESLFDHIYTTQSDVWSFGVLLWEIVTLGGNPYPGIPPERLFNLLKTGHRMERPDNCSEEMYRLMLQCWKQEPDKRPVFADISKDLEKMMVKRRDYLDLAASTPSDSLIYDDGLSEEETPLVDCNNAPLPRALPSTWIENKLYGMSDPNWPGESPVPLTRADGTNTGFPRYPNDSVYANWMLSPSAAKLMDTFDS
pIC50 (Human RET kinase),SMILES,pIC50 (TT cells)
≥ 8.00,"CCOc1cc(=O)[nH]cc1-c1ccc(CC(=O)Nc2cc(C(=O)NCCN(C)C)cc(C(F)(F)F)c2)c(F)c1 [Example 1, N-(2-(dimethylamino)ethyl)-3-(2-(4-(4-ethoxy-6-oxo-1,6-dihydropyridin-3-yl)-2-fluorophenyl)acetamido)-5-(trifluoromethyl)benzamide]",7.00 to 8.00
≥ 8.00,"CCOc1cc(=O)[nH]cc1-c1ccc(CC(=O)Nc2cc(OCCN(C)C)cc(C(F)(F)F)c2)c(F)c1 [Example 2, N-(3-(2-(dimethylamino)ethoxy)-5-(trifluoromethyl)phenyl)-2-(4-(4-ethoxy-6-oxo-1,6-dihydropyridin-3-yl)-2-fluorophenyl)acetamide]",7.00 to 8.00
